ChEMBL document CHEMBL1649226, “Species identification and antifungal susceptibility patterns of species belonging to Aspergillus section Nigri” (2009)
≈ marks a conversion by molar mass, not a printed value.

Legend:
Assay type in all cases: functional
Aspergillus foetidus [1] = assay: Antifungal activity against Aspergillus foetidus isolate CM-5264 obtained from respiratory tract infection of patient after 48 hrs by EUCAST broth dilution method; settings: isolate CM-5264, 48 h
Aspergillus tubingensis [2] = assay: Antifungal activity against Aspergillus tubingensis isolate CM-4899 obtained from respiratory tract infection of patient after 48 hrs by EUCAST broth dilution method; settings: isolate CM-4899, 48 h
Aspergillus tubingensis [3] = assay: Antifungal activity against Aspergillus tubingensis isolate CM-4296 obtained from respiratory tract infection of patient after 48 hrs by EUCAST broth dilution method; settings: isolate CM-4296, 48 h
Aspergillus tubingensis [4] = assay: Antifungal activity against Aspergillus tubingensis isolate CM-4897 obtained from blood culture after 48 hrs by EUCAST broth dilution method; settings: isolate CM-4897, 48 h
Aspergillus niger [5] = assay: Antifungal activity against Aspergillus niger isolate CM-3236 obtained from respiratory tract infection of patient after 48 hrs by EUCAST broth dilution method; settings: isolate CM-3236, 48 h
Aspergillus niger [6] = assay: Antifungal activity against Aspergillus niger isolate CM-5095 obtained from respiratory tract infection of patient after 48 hrs by EUCAST broth dilution method; settings: isolate CM-5095, 48 h
Aspergillus tubingensis [7] = assay: Antifungal activity against Aspergillus tubingensis isolate CM-5094 obtained from respiratory tract infection of patient after 48 hrs by EUCAST broth dilution method; settings: isolate CM-5094, 48 h
Aspergillus tubingensis [8] = assay: Antifungal activity against Aspergillus tubingensis isolate CM-4264 obtained from blood culture after 48 hrs by EUCAST broth dilution method; settings: isolate CM-4264, 48 h
Aspergillus tubingensis [9] = assay: Antifungal activity against Aspergillus tubingensis isolate CM-4000 after 48 hrs by EUCAST broth dilution method; settings: isolate CM-4000, 48 h
Aspergillus tubingensis [10] = assay: Antifungal activity against Aspergillus tubingensis isolate CM-3507 obtained from respiratory tract infection of patient after 48 hrs by EUCAST broth dilution method; settings: isolate CM-3507, 48 h
Aspergillus niger [11] = assay: Antifungal activity against Aspergillus niger isolate CM-3641 obtained from respiratory tract infection of patient after 48 hrs by EUCAST broth dilution method; settings: isolate CM-3641, 48 h
Aspergillus tubingensis [12] = assay: Antifungal activity against Aspergillus tubingensis isolate CM-4003 after 48 hrs by EUCAST broth dilution method; settings: isolate CM-4003, 48 h
Aspergillus tubingensis [13] = assay: Antifungal activity against Aspergillus tubingensis isolate CM-3177 obtained from respiratory tract infection of patient after 48 hrs by EUCAST broth dilution method; settings: isolate CM-3177, 48 h
Aspergillus niger [14] = assay: Antifungal activity against Aspergillus niger isolate CM-4004 obtained from after 48 hrs by EUCAST broth dilution method; settings: isolate CM-4004, 48 h
Aspergillus niger [15] = assay: Antifungal activity against Aspergillus niger isolate CM-3586 obtained from catheter of patient after 48 hrs by EUCAST broth dilution method; settings: isolate CM-3586, 48 h
Aspergillus tubingensis [16] = assay: Antifungal activity against Aspergillus tubingensis isolate CM-3125 obtained from respiratory tract infection of patient after 48 hrs by EUCAST broth dilution method; settings: isolate CM-3125, 48 h
Aspergillus niger [17] = assay: Antifungal activity against Aspergillus niger isolate CM-3257 obtained from respiratory tract infection of patient after 48 hrs by EUCAST broth dilution method; settings: isolate CM-3257, 48 h
Aspergillus niger [18] = assay: Antifungal activity against Aspergillus niger isolate CM-3636 obtained from respiratory tract infection of patient after 48 hrs by EUCAST broth dilution method; settings: isolate CM-3636, 48 h
Aspergillus tubingensis [19] = assay: Antifungal activity against Aspergillus tubingensis isolate CM-4005 after 48 hrs by EUCAST broth dilution method; settings: isolate CM-4005, 48 h
Aspergillus foetidus [20] = assay: Antifungal activity against Aspergillus foetidus isolate CM-4995 obtained from prosthesis after 48 hrs by EUCAST broth dilution method; settings: isolate CM-4995, 48 h
Aspergillus tubingensis [21] = assay: Antifungal activity against Aspergillus tubingensis isolate CM-3123 obtained from respiratory tract infection of patient after 48 hrs by EUCAST broth dilution method; settings: isolate CM-3123, 48 h
Aspergillus foetidus [22] = assay: Antifungal activity against Aspergillus foetidus isolate CM-4002 after 48 hrs by EUCAST broth dilution method; settings: isolate CM-4002, 48 h
Aspergillus niger [23] = assay: Antifungal activity against Aspergillus niger isolate CM-3672 obtained from cutaneous layer of patient after 48 hrs by EUCAST broth dilution method; settings: isolate CM-3672, 48 h
Aspergillus tubingensis [24] = assay: Antifungal activity against Aspergillus tubingensis isolate CM-4688 obtained from respiratory tract infection of patient after 48 hrs by EUCAST broth dilution method; settings: isolate CM-4688, 48 h
Aspergillus tubingensis [25] = assay: Antifungal activity against Aspergillus tubingensis isolate CM-4001 after 48 hrs by EUCAST broth dilution method; settings: isolate CM-4001, 48 h
Aspergillus tubingensis [26] = assay: Antifungal activity against Aspergillus tubingensis isolate CM-3810 obtained from respiratory tract infection of patient after 48 hrs by EUCAST broth dilution method; settings: isolate CM-3810, 48 h
Aspergillus niger [27] = assay: Antifungal activity against Aspergillus niger isolate CM-4262 after 48 hrs by EUCAST broth dilution method Ophthalmic; settings: isolate CM-4262, 48 h
Aspergillus niger [28] = assay: Antifungal activity against Aspergillus niger isolate CM-3551 obtained from respiratory tract infection of patient after 48 hrs by EUCAST broth dilution method; settings: isolate CM-3551, 48 h
Aspergillus tubingensis [29] = assay: Antifungal activity against Aspergillus tubingensis isolate CM-4352 obtained from respiratory tract infection of patient after 48 hrs by EUCAST broth dilution method; settings: isolate CM-4352, 48 h
Aspergillus tubingensis [30] = assay: Antifungal activity against Aspergillus tubingensis isolate CM-3585 after 48 hrs by EUCAST broth dilution method; settings: isolate CM-3585, 48 h
Aspergillus niger [31] = assay: Antifungal activity against Aspergillus niger isolate CM-3506 obtained from respiratory tract infection of patient after 48 hrs by EUCAST broth dilution method; settings: isolate CM-3506, 48 h
Aspergillus tubingensis [32] = assay: Antifungal activity against Aspergillus tubingensis isolate CM-3654 obtained from blood culture after 48 hrs by EUCAST broth dilution method; settings: isolate CM-3654, 48 h
Aspergillus niger [33] = assay: Antifungal activity against Aspergillus niger isolate CM-4316 obtained from respiratory tract infection of patient after 48 hrs by EUCAST broth dilution method; settings: isolate CM-4316, 48 h
Aspergillus niger [34] = assay: Antifungal activity against Aspergillus niger isolate CM-4213 obtained from respiratory tract infection of patient after 48 hrs by EUCAST broth dilution method; settings: isolate CM-4213, 48 h

MIC (Aspergillus foetidus [1]) | MIC (Aspergillus tubingensis [2]) | MIC (Aspergillus tubingensis [3]) | MIC (Aspergillus tubingensis [4]) | MIC (Aspergillus niger [5]) | MIC (Aspergillus niger [6]) | MIC (Aspergillus tubingensis [7]) | MIC (Aspergillus tubingensis [8]) | MIC (Aspergillus tubingensis [9]) | MIC (Aspergillus tubingensis [10]) | MIC (Aspergillus niger [11]) | MIC (Aspergillus tubingensis [12]) | MIC (Aspergillus tubingensis [13]) | MIC (Aspergillus niger [14]) | MIC (Aspergillus niger [15]) | MIC (Aspergillus tubingensis [16]) | MIC (Aspergillus niger [17]) | MIC (Aspergillus niger [18]) | MIC (Aspergillus tubingensis [19]) | MIC (Aspergillus foetidus [20]) | further results | Structure (SMILES)
0.12 µg/mL (≈ 0.13 µM) | 0.16 µg/mL (≈ 0.173 µM) | 0.12 µg/mL (≈ 0.13 µM) | 0.16 µg/mL (≈ 0.173 µM) | 0.19 µg/mL (≈ 0.206 µM) | 0.19 µg/mL (≈ 0.206 µM) | 0.12 µg/mL (≈ 0.13 µM) | 0.12 µg/mL (≈ 0.13 µM) | 0.16 µg/mL (≈ 0.173 µM) | 0.19 µg/mL (≈ 0.206 µM) | 0.25 µg/mL (≈ 0.271 µM) | 0.12 µg/mL (≈ 0.13 µM) | 0.16 µg/mL (≈ 0.173 µM) | 0.25 µg/mL (≈ 0.271 µM) | 0.25 µg/mL (≈ 0.271 µM) | 0.12 µg/mL (≈ 0.13 µM) | 0.25 µg/mL (≈ 0.271 µM) | 0.25 µg/mL (≈ 0.271 µM) | 0.12 µg/mL (≈ 0.13 µM) | 0.21 µg/mL (≈ 0.227 µM) | MIC (Aspergillus tubingensis [21]): 0.25 µg/mL (≈ 0.271 µM); MIC (Aspergillus foetidus [22]): 0.25 µg/mL (≈ 0.271 µM); MIC (Aspergillus niger [23]): 0.12 µg/mL (≈ 0.13 µM); MIC (Aspergillus tubingensis [24]): 0.21 µg/mL (≈ 0.227 µM); MIC (Aspergillus tubingensis [25]): 0.19 µg/mL (≈ 0.206 µM); MIC (Aspergillus tubingensis [26]): 0.25 µg/mL (≈ 0.271 µM); MIC (Aspergillus niger [27]): 0.25 µg/mL (≈ 0.271 µM); MIC (Aspergillus niger [28]): 0.5 µg/mL (≈ 0.541 µM); MIC (Aspergillus tubingensis [29]): 0.28 µg/mL (≈ 0.303 µM); MIC (Aspergillus tubingensis [30]): 0.19 µg/mL (≈ 0.206 µM); MIC (Aspergillus niger [31]): 0.19 µg/mL (≈ 0.206 µM); MIC (Aspergillus tubingensis [32]): 0.19 µg/mL (≈ 0.206 µM); MIC (Aspergillus niger [33]): 0.19 µg/mL (≈ 0.206 µM); MIC (Aspergillus niger [34]): 0.33 µg/mL (≈ 0.357 µM) | C[C@@H]1[C@H](O)[C@@H](C)/C=C/C=C/C=C/C=C/C=C/C=C/C=C/[C@H](O[C@@H]2O[C@H](C)[C@@H](O)[C@H](N)[C@@H]2O)C[C@@H]2O[C@](O)(C[C@@H](O)C[C@@H](O)[C@H](O)CC[C@@H](O)C[C@@H](O)CC(=O)O[C@H]1C)C[C@H](O)[C@H]2C(=O)O [AMPHOTERICIN B]
16 µg/mL (≈ 22.7 µM) | 1 µg/mL (≈ 1.42 µM) | 0.75 µg/mL (≈ 1.06 µM) | 1 µg/mL (≈ 1.42 µM) | 0.5 µg/mL (≈ 0.709 µM) | 0.5 µg/mL (≈ 0.709 µM) | 0.5 µg/mL (≈ 0.709 µM) | 0.5 µg/mL (≈ 0.709 µM) | 1 µg/mL (≈ 1.42 µM) | 0.5 µg/mL (≈ 0.709 µM) | 0.5 µg/mL (≈ 0.709 µM) | 16 µg/mL (≈ 22.7 µM) | 1 µg/mL (≈ 1.42 µM) | 1 µg/mL (≈ 1.42 µM) | 0.5 µg/mL (≈ 0.709 µM) | 0.5 µg/mL (≈ 0.709 µM) | 1 µg/mL (≈ 1.42 µM) | 0.5 µg/mL (≈ 0.709 µM) | 16 µg/mL (≈ 22.7 µM) | 1 µg/mL (≈ 1.42 µM) | MIC (Aspergillus tubingensis [21]): 11 µg/mL (≈ 15.6 µM); MIC (Aspergillus foetidus [22]): 1 µg/mL (≈ 1.42 µM); MIC (Aspergillus niger [23]): 0.5 µg/mL (≈ 0.709 µM); MIC (Aspergillus tubingensis [24]): 3.67 µg/mL (≈ 5.2 µM); MIC (Aspergillus tubingensis [25]): 1 µg/mL (≈ 1.42 µM); MIC (Aspergillus tubingensis [26]): 4 µg/mL (≈ 5.67 µM); MIC (Aspergillus niger [27]): 1 µg/mL (≈ 1.42 µM); MIC (Aspergillus niger [28]): 4.75 µg/mL (≈ 6.73 µM); MIC (Aspergillus tubingensis [29]): 1 µg/mL (≈ 1.42 µM); MIC (Aspergillus tubingensis [30]): 0.5 µg/mL (≈ 0.709 µM); MIC (Aspergillus niger [31]): 0.5 µg/mL (≈ 0.709 µM); MIC (Aspergillus tubingensis [32]): 1 µg/mL (≈ 1.42 µM); MIC (Aspergillus niger [33]): 0.5 µg/mL (≈ 0.709 µM); MIC (Aspergillus niger [34]): 0.14 µg/mL (≈ 0.198 µM) | CCC(C)n1ncn(-c2ccc(N3CCN(c4ccc(OCC5COC(Cn6cncn6)(c6ccc(Cl)cc6Cl)O5)cc4)CC3)cc2)c1=O (stereo not drawn) [ITRACONAZOLE]
